{
  "source": "paper PMC3815585",
  "about": "(European journal of medicinal chemistry, 2008)",
  "key": {"Poly(d(A-T))2": {"tested_on": "Poly(d(A-T))2", "experiment": "DNA thermal melting", "assay_type": "binding", "details": "from ΔTm values; for Reduction in DNA affinity: compared within the bis-guanidine series"}, "T.b.r. strain STIB900": {"tested_on": "T.b.r. strain STIB900", "experiment": "STIB900 acute mouse model for African trypanosomiasis", "assay_type": "in vivo"}, "[1]": {"tested_on": "Trypanosoma brucei rhodesiense (T.b.r.) strain STIB900", "assay_type": "cell-based", "details": "RHODESIENSE|STIB900, read-out: T.b.r. IC50"}},
  "data": [
    {"compound": "N=C(N)Nc1ccc(-c2ccc(-c3ccc(NC(=N)N)cc3)cc2)cc1", "note": "[6a, 4,4″-Bis-guanidino-[1,1′;4′,1″]terphenyl]", "values": [
      {"measurement": "Reduction of DNA affinity from that of the corresponding diamidine V", "setting": "Poly(d(A-T))2", "value": "about 20%"},
      {"measurement": "Cures (mice that survived 60 days and are parasite-free)", "setting": "T.b.r. strain STIB900; 20 mg/kg ip for 4 days", "value": "none gave cures"}
    ]},
    {"compound": "N=C(N)Nc1ccc(-c2ccc(-c3ccc(NC(=N)N)cn3)cc2)nc1", "note": "[6b, 1,4-Bis-[5′-guanidinopyridin-2′-yl]phenylene]", "values": [
      {"measurement": "Reduction in DNA affinity", "setting": "Poly(d(A-T))2", "value": "approximately one third"}
    ]},
    {"compound": "CCOC(=O)/N=C(\\N)Nc1ccc(-c2ccc(-c3ccc(N/C(N)=N/C(=O)OCC)cc3)cc2)cc1", "note": "[8a, 4,4″-Bis(N′-ethoxycarbonyl)-guanidino-[1,1′;4′,1″]terphenyl]", "values": [
      {"measurement": "Cures (mice that survived 60 days and are parasite-free)", "setting": "T.b.r. strain STIB900; 25 mg/kg po for 4 days", "value": "no cures were achieved"}
    ]},
    {"compound": "CCOC(=O)/N=C(\\NC)Nc1ccc(-c2ccc(-c3ccc(N/C(=N/C(=O)OCC)NC)cc3)cc2)cc1", "note": "[8c, 4,4″-Bis(N′-ethoxycarbonyl-N″-methyl)-guanidino-[1,1′;4′,1″]terphenyl]", "values": [
      {"measurement": "Cures (mice that survived 60 days and are parasite-free)", "setting": "T.b.r. strain STIB900; 25 mg/kg po for 4 days", "value": "no cures were achieved"}
    ]},
    {"compound": "CNC(=N)Nc1ccc(-c2ccc(-c3ccc(NC(=N)NC)cc3)cc2)cc1", "note": "[9c, 4,4″-Bis(N′-methyl)-guanidino-[1,1′;4′,1″]terphenyl]", "values": [
      {"measurement": "Cures (mice that survived 60 days and are parasite-free)", "setting": "T.b.r. strain STIB900; 20 mg/kg ip for 4 days", "value": "none gave cures"}
    ]},
    {"compound": "CNC(=N)Nc1ccc(-c2ccc(-c3ccc(NC(=N)NC)cn3)cc2)nc1", "note": "[9d, 1,4-Bis-[5′-(N′-methylguanidino)-pyridin-2′-yl]-phenylene]", "values": [
      {"measurement": "Acute toxicity in treated mice", "setting": "T.b.r. strain STIB900; 20 mg/kg ip", "value": "showed acute toxicity"},
      {"measurement": "Cures (mice that survived 60 days and are parasite-free)", "setting": "T.b.r. strain STIB900; 20 mg/kg ip for 4 days", "value": "none gave cures"}
    ]},
    {"compound": "CC(C)NC(=N)Nc1ccc(-c2ccc(-c3ccc(NC(=N)NC(C)C)cc3)cc2)cc1", "note": "[9e, 4,4″-Bis(N′-isopropyl)-guanidino-[1,1′;4′,1″]terphenyl]", "values": [
      {"measurement": "Reduction in DNA affinity", "setting": "Poly(d(A-T))2", "value": "approximately one third"}
    ]},
    {"compound": "N=C(N)c1ccc(-c2ccc(-c3ccc(C(=N)N)cc3)cc2)cc1", "note": "[V]", "values": [
      {"measurement": "IC50", "setting": "[1]", "value": 5, "unit": "nM"}
    ]}
  ]
}
